Laboratory results from patent US20210227824A1, “METHOD OF REDUCING CROP DAMAGE” (Bayer Aktiengesellschaft, priority 2018, published 2021).

Columns and labels:
Format in all cases: in vivo
winter wheat, TRZAW [1] = test: Method A: safener seed treatment, herbicide post-emergence, visual % crop damage; settings: safener seed treatment 0.5 g/kg only, no herbicide
Experimental: (§1) For the safener seed treatment, sufficient seeds were weighed into screw top glass bottles approximately twice the volume of the seeds.
(§2) The safener (mefenpyr-diethyl, formulated as suspension concentrate (SC)) was weighed out so that the required rates (g a.i./kg seed) would be obtained, dissolved in water (1 ml water per 10 g of seeds), and added to the seeds to produce a slurry.
(§3) The bottles were capped and then placed in an overhead shaker (set at medium speed for up to 1 hour) so that the seeds were evenly coated with the slurry. The bottles were uncapped and the seeds were sown as described above.
(§4) For the seed treatment process, the blind formulation (the SC formulation without the safener mefenpyr-diethyl) was used as seed treatment as described above.
Post-emergence application of the herbicide was done when the plants had reached growth stage BBCH11.
(§5) After application, the test plants were kept in the greenhouse under good growth conditions.
(§6) Values in the table below are mean values from at least 3 replicates.

winter wheat, TRZAW [2] = test: Method C: safener seed treatment, herbicide and safener tank mix post-emergence, visual % crop damage
Experimental: as §1, §2, §3, §4
Post-emergence application was done when the plants had reached growth stage BBCH11.
The safener (mefenpyr-diethyl) was formulated as wettable powder (WP).
(§7) The combination of herbicide and safener was applied as a tank mix.
as §5, §6

winter wheat, TRZAW [3] = test: Method D: safener seed treatment, herbicide and safener tank mix pre-emergence, visual % crop damage
Experimental: as §1, §2, §3, §4, §7, §5, §6

[4] = safener seed treatment 0.5 g/kg only, no herbicide

SMILES: CCOC(=O)C1=NN(c2ccc(Cl)cc2Cl)C(C)(C(=O)OCC)C1 (centres unmarked) [Safener seed treatment, ethyl 1-(2,4-dichlorophenyl)-5-(ethoxycarbonyl)-5-methyl-2-pyrazoline-3-carboxylate]
- % crop damage (winter wheat, TRZAW [1]): 0%
- % crop damage (winter wheat, TRZAW [2]; safener 200 g/ha in tank mix only, post-emergence, 14 days after application): 5%
- % crop damage (winter wheat, TRZAW [2]; [4]): 0%
- % crop damage (winter wheat, TRZAW [3]; safener 200 g/ha in tank mix only, pre-emergence, 14 days after application): 5%
- % crop damage (winter wheat, TRZAW [3]; [4]): 2%
